Entries after “also recorded” stand apart in the source; their conditions may differ. Non-standard residues stand in square brackets, D forms with d. Residues, ends and D or L forms follow the SMILES beside them. No end group written: not given here. *: point of attachment. pGlu = O=C1CC[C@@H](C(=O)O)N1; Cbz = O=C(OCc1ccccc1)*
What was measured:
morphine-dependent mice [1] = assay: Naloxone-precipitated withdrawal: body temperature and withdrawal signs; assay type: in vivo; conditions: for Withdrawal, % of control (jumping, shakes, diarrhea) / Δt, °C. (difference in body temperature just prior to naloxone and 30 min. thereafter): Table II, peptide 50 μg per mouse, naloxone 0.1 mg/kg; for Δt, °C. (difference in body temperature just prior to naloxone and 30 min. thereafter): mean ± SD; for Withdrawal, % of control / Δt, °C. / lowest dose still effective in blocking physical dependence on morphine: Table III; for Withdrawal, % of control / Δt, °C.: dose 50 μg; for lowest dose still effective in blocking physical dependence on morphine: dose-response experiments; for ability to block development of physical dependence on morphine: naloxone-precipitated withdrawal, Tables II and III
Protocol: The mice were randomly divided into two groups. One received SC injections of water (vehicle) while the other received the peptide under investigation (50 μg/mouse on day one). Two hours later the mice were further subdivided and each subgroup was implanted with placebo or morphine pellets. The injections of vehicle and peptide were repeated 24 and 48 hours after the first injection in their respective groups. Morphine pellets containing 75 mg of morphine free base were implanted subcutaneously (SC) between 10-11 A.M. and were removed 3 days later at the same time. The control animals were implanted with placebo pellets. Body temperature and weight were measured daily at 11 A.M. Temperature was measured using a lubricated rectal probe inserted 2.5 cm into the rectum and measured with a telethermometer (Model 43TA Yellow Springs Instrument Co., Yellow Springs, Ohio).
To determine the effects of peptide treatment on the development of physical dependence, the abstinence syndrome was precipitated using the morphine antagonist naloxone (Endo Laboratories Inc., N.Y.) at the appropriate dose (0.1, 0.25, or 0.50 mg/kg) injected intraperitoneally (IP) one hour following removal of morphine and placebo pellets. Pellet removal was performed 24 hours after the last peptide injection. These mice were monitored for changes in body temperature (see above) and body weight at 15 min. intervals for one hour after the naloxone injection. Effects of removing the pellets (withdrawing morphine) were also assessed by utilizing body temperature and weight as physical dependence parameters; however, these measurements were made at 2 hour intervals for 10 hours after the removal of the pellets. Placebo implanted mice were treated in the same manner as the morphine pellet implanted mice.

morphine-dependent mice [2] = assay: as above; assay type: in vivo; conditions: Table III
[3] = literature, Life Sci., 19, 1331-1340; cited from earlier work

Molecule: Z-Pro--ΔPhe
- Withdrawal, % of control (jumping, shakes, diarrhea) (morphine-dependent mice [1]): 22%
- Δt, °C. (difference in body temperature just prior to naloxone and 30 min. thereafter) (morphine-dependent mice [1]): -0.36 ± 0.58 °C

Molecule: CC(C)C[C@H]1NC(=O)[C@@H]2CCCN2C1=O [Cyclo(Pro--D-Leu)]
- Withdrawal, % of control (jumping, shakes, diarrhea) (morphine-dependent mice [1]): 40%
- Δt, °C. (difference in body temperature just prior to naloxone and 30 min. thereafter) (morphine-dependent mice [1]): -0.24 ± 1.06 °C

Molecule: CC(C)C[C@@H]1NC(=O)[C@H](C)NC1=O [Cyclo(Leu--Ala)]
- Withdrawal, % of control (jumping, shakes, diarrhea) (morphine-dependent mice [1]): 100%
- Δt, °C. (difference in body temperature just prior to naloxone and 30 min. thereafter) (morphine-dependent mice [1]): -1.80 ± 0.96 °C

Molecule: Cbz-Pro-Ala
- Withdrawal, % of control (jumping, shakes, diarrhea) (morphine-dependent mice [1]): 63%
- Δt, °C. (difference in body temperature just prior to naloxone and 30 min. thereafter) (morphine-dependent mice [1]): -0.74 ± 0.94 °C

Molecule: Cbz-Pro-Tyr
- Withdrawal, % of control (jumping, shakes, diarrhea) (morphine-dependent mice [1]): 0%
- Δt, °C. (difference in body temperature just prior to naloxone and 30 min. thereafter) (morphine-dependent mice [1]): +0.13 ± 0.31 °C

Molecule: Cbz-Pro-Leu
- Withdrawal, % of control (jumping, shakes, diarrhea) (morphine-dependent mice [1]): 22%
- Δt, °C. (difference in body temperature just prior to naloxone and 30 min. thereafter) (morphine-dependent mice [1]): +0.08 ± 0.93 °C
- Withdrawal, % of control (morphine-dependent mice [1]): 18%
- Δt, °C. (morphine-dependent mice [1]): +0.08 ± 0.93 °C
- lowest dose still effective in blocking physical dependence on morphine (morphine-dependent mice [1]): 5 μg per mouse
- ability to block development of physical dependence on morphine (morphine-dependent mice [1]): exhibited activity
- Withdrawal, % of control (morphine-dependent mice [2]; dose 0.5 μg): 100%
- Δt, °C. (morphine-dependent mice [2]; dose 0.5 μg): -1.17 ± 0.17 °C
- Withdrawal, % of control (morphine-dependent mice [2]; dose 5 μg): 0%
- Δt, °C. (morphine-dependent mice [2]; dose 5 μg): +0.33 ± 0.26 °C

Molecule: CC[C@H](C)[C@@H]1NC(=O)[C@H](Cc2ccc(O)cc2)NC(=O)[C@@H](N)CSSC[C@@H](C(=O)N2CCC[C@H]2C(=O)N[C@@H](CC(C)C)C(=O)NCC(N)=O)NC(=O)[C@H](CC(N)=O)NC(=O)[C@H](CCC(N)=O)NC1=O [oxytocin]
- relative potency in facilitating development of physical dependence on and tolerance to morphine [3]: more effective than 8-arginine vasopressin

Molecule: Cbz-Pro-Ser
- Withdrawal, % of control (jumping, shakes, diarrhea) (morphine-dependent mice [1]): 39%
- Δt, °C. (difference in body temperature just prior to naloxone and 30 min. thereafter) (morphine-dependent mice [1]): -0.29 ± 0.73 °C

Molecule: Z-D-Pro--D-Leu
- Withdrawal, % of control (jumping, shakes, diarrhea) (morphine-dependent mice [1]): 0%
- Δt, °C. (difference in body temperature just prior to naloxone and 30 min. thereafter) (morphine-dependent mice [1]): +0.10 ± 0.56 °C
- ability to block development of physical dependence on morphine (morphine-dependent mice [1]): exhibited activity

Molecule: 8-arginine vasotocin
- relative potency in facilitating development of physical dependence on and tolerance to morphine [3]: more effective than 8-arginine vasopressin

Molecule: CC(C)C[C@H](NC(=O)[C@@H]1CCCN1C(=O)OCc1ccccc1)C(N)=O [Z-Pro--Leu--NH2] (Cbz-Pro-Leu-NH2)
- Withdrawal, % of control (jumping, shakes, diarrhea) (morphine-dependent mice [1]): 100%
- Δt, °C. (difference in body temperature just prior to naloxone and 30 min. thereafter) (morphine-dependent mice [1]): -0.95 ± 0.21 °C

Molecule: Cbz-Pro-Val
- Withdrawal, % of control (jumping, shakes, diarrhea) (morphine-dependent mice [1]): 63%
- Δt, °C. (difference in body temperature just prior to naloxone and 30 min. thereafter) (morphine-dependent mice [1]): -0.44 ± 0.48 °C

Molecule: Cbz-[dP]-Leu
- Withdrawal, % of control (jumping, shakes, diarrhea) (morphine-dependent mice [1]): 14%
- Δt, °C. (difference in body temperature just prior to naloxone and 30 min. thereafter) (morphine-dependent mice [1]): +0.17 ± 0.71 °C
- ability to block development of physical dependence on morphine (morphine-dependent mice [1]): exhibited activity

Molecule: CC(C)C[C@H](NC(=O)[C@@H]1CCCN1C(=O)CNC(=O)OCc1ccccc1)C(=O)NCC(=O)O [Z-Gly--Pro--Leu--Gly--COOH] (Cbz-GPLG-OH)
- Withdrawal, % of control (jumping, shakes, diarrhea) (morphine-dependent mice [1]): 22%
- Δt, °C. (difference in body temperature just prior to naloxone and 30 min. thereafter) (morphine-dependent mice [1]): -0.07 ± 0.72 °C

Molecule: Cbz-Pro-Gly
- Withdrawal, % of control (jumping, shakes, diarrhea) (morphine-dependent mice [1]): 69%
- Δt, °C. (difference in body temperature just prior to naloxone and 30 min. thereafter) (morphine-dependent mice [1]): -0.79 ± 0.78 °C

Molecule: Cbz-Pro-Ile
- Withdrawal, % of control (jumping, shakes, diarrhea) (morphine-dependent mice [1]): 78%
- Δt, °C. (difference in body temperature just prior to naloxone and 30 min. thereafter) (morphine-dependent mice [1]): -1.19 ± 0.91 °C

Molecule: Cbz-Pro-Phe
- Withdrawal, % of control (jumping, shakes, diarrhea) (morphine-dependent mice [1]): 89%
- Δt, °C. (difference in body temperature just prior to naloxone and 30 min. thereafter) (morphine-dependent mice [1]): -1.03 ± 0.55 °C
- Withdrawal, % of control (morphine-dependent mice [1]): 99%
- Δt, °C. (morphine-dependent mice [1]): -1.03 ± 0.55 °C
- Withdrawal, % of control (morphine-dependent mice [2]; dose 0.05 μg): 100%
- Δt, °C. (morphine-dependent mice [2]; dose 0.05 μg): -1.60 ± 0.69 °C
- Withdrawal, % of control (morphine-dependent mice [2]; dose 0.5 μg): 100%
- Δt, °C. (morphine-dependent mice [2]; dose 0.5 μg): -0.69 ± 0.22 °C
- Withdrawal, % of control (morphine-dependent mice [2]; dose 5 μg): 100%
- Δt, °C. (morphine-dependent mice [2]; dose 5 μg): -0.69 ± 0.24 °C

Molecule: Z-Pro--Leu--Gly--N(CH3)2
- Withdrawal, % of control (jumping, shakes, diarrhea) (morphine-dependent mice [1]): 100%
- Δt, °C. (difference in body temperature just prior to naloxone and 30 min. thereafter) (morphine-dependent mice [1]): -0.47 ± 0.15 °C

Molecule: Cbz-Pro-Met
- Withdrawal, % of control (jumping, shakes, diarrhea) (morphine-dependent mice [1]): 0%
- Δt, °C. (difference in body temperature just prior to naloxone and 30 min. thereafter) (morphine-dependent mice [1]): +0.17 ± 0.23 °C

Molecule: CC(C)C[C@H](NC(=O)[C@@H]1CCCN1C(=O)OCc1ccccc1)C(=O)NCC(=O)O [Z-Pro--Leu--Gly--COOH] (Cbz-Pro-Leu-Gly-OH)
- Withdrawal, % of control (jumping, shakes, diarrhea) (morphine-dependent mice [1]): 100%
- Δt, °C. (difference in body temperature just prior to naloxone and 30 min. thereafter) (morphine-dependent mice [1]): -1.20 ± 0.39 °C

Molecule: Cbz-Pro-Glu
- Withdrawal, % of control (jumping, shakes, diarrhea) (morphine-dependent mice [1]): 45%
- Δt, °C. (difference in body temperature just prior to naloxone and 30 min. thereafter) (morphine-dependent mice [1]): -0.63 ± 0.88 °C

Molecule: Cbz-Ala-Pro
- Withdrawal, % of control (jumping, shakes, diarrhea) (morphine-dependent mice [1]): 100%
- Δt, °C. (difference in body temperature just prior to naloxone and 30 min. thereafter) (morphine-dependent mice [1]): -1.20 ± 0.21 °C

Molecule: CC(C)C[C@@H]1NC(=O)CNC1=O [Cyclo(Leu--Gly), cyclo(leucyl-glycine)]
- Withdrawal, % of control (jumping, shakes, diarrhea) (morphine-dependent mice [1]): 21%
- Δt, °C. (difference in body temperature just prior to naloxone and 30 min. thereafter) (morphine-dependent mice [1]): -0.02 ± 0.83 °C
- Withdrawal, % of control (morphine-dependent mice [1]): 18%
- Δt, °C. (morphine-dependent mice [1]): -0.19 ± 0.58 °C
- lowest dose still effective in blocking physical dependence on morphine (morphine-dependent mice [1]): ≤ 0.05 μg per mouse
- ability to block development of physical dependence on morphine (morphine-dependent mice [1]): showed significant activity; also recorded: most potent peptides tested
- relative potency in facilitating development of physical dependence on and tolerance to morphine [3]: as effective as oxytocin
- Withdrawal, % of control (morphine-dependent mice [2]; dose 0.05 μg): 20%
- Δt, °C. (morphine-dependent mice [2]; dose 0.05 μg): +0.27 ± 0.70 °C
- Withdrawal, % of control (morphine-dependent mice [2]; dose 0.5 μg): 0%
- Δt, °C. (morphine-dependent mice [2]; dose 0.5 μg): +0.30 ± 0.29 °C
- Withdrawal, % of control (morphine-dependent mice [2]; dose 5 μg): 0%
- Δt, °C. (morphine-dependent mice [2]; dose 5 μg): +0.47 ± 0.32 °C

Molecule: Cbz-Pro-Gln
- Withdrawal, % of control (jumping, shakes, diarrhea) (morphine-dependent mice [1]): 0%
- Δt, °C. (difference in body temperature just prior to naloxone and 30 min. thereafter) (morphine-dependent mice [1]): +0.08 ± 0.33 °C

Molecule: O=C1N[C@@H](Cc2ccccc2)C(=O)N2CCC[C@@H]12 [Cyclo(Pro--Phe)]
- Withdrawal, % of control (jumping, shakes, diarrhea) (morphine-dependent mice [1]): 20%
- Δt, °C. (difference in body temperature just prior to naloxone and 30 min. thereafter) (morphine-dependent mice [1]): -0.13 ± 0.55 °C
- ability to block development of physical dependence on morphine (morphine-dependent mice [1]): showed significant activity

Molecule: CC(C)C[C@H](NC(=O)[C@@H]1CCC(=O)N1)C(=O)NCC(N)=O [[Glu--Leu--Gly--NH2] ([pGlu]-Leu-Gly-NH2)
- Withdrawal, % of control (jumping, shakes, diarrhea) (morphine-dependent mice [1]): 44%
- Δt, °C. (difference in body temperature just prior to naloxone and 30 min. thereafter) (morphine-dependent mice [1]): -0.27 ± 0.72 °C

Molecule: Z-Pro--D-Ala--DCHA
- Withdrawal, % of control (jumping, shakes, diarrhea) (morphine-dependent mice [1]): 50%
- Δt, °C. (difference in body temperature just prior to naloxone and 30 min. thereafter) (morphine-dependent mice [1]): -0.55 ± 0.90 °C

Molecule: CC(C)C[C@H](NC(=O)OCc1ccccc1)C(=O)NCC(N)=O [Z-Leu--Gly--NH2] (Cbz-Leu-Gly-NH2)
- Withdrawal, % of control (jumping, shakes, diarrhea) (morphine-dependent mice [1]): 70%
- Δt, °C. (difference in body temperature just prior to naloxone and 30 min. thereafter) (morphine-dependent mice [1]): -0.75 ± 0.72 °C

Source: US4416871A, “Inhibition by peptides of tolerance to and physical dependence on morphine” (The United States of America as represented by the …, priority 1982, dated 1983)
